For series [1] the following is noted: non-transplant patients; cited from earlier work.
The conditions of series [2]: in vivo; cited from earlier work.
Another series addresses T1, CYP3a4 (Homo sapiens, UniProt P08684).
T1 construct: purchased Invitrogen (Carlsbad, Calif.) P2856
Briefly: Fluorescence-based CYP3a4 assay (Invitrogen VIVID) with or without FKBP. The class given is in vitro ADME.

For series [3], the target named is T2, vitamin K epoxide reductase (Mus musculus, UniProt Q9CRC0).
T2 construct: clotting time doubles after only about 8 hours for warfarin-SLF dosed mice; from tissue; host or cells: live mice dosed by gavage; clotting time measured on their blood
T2 sequence (Q9CRC0 1-161): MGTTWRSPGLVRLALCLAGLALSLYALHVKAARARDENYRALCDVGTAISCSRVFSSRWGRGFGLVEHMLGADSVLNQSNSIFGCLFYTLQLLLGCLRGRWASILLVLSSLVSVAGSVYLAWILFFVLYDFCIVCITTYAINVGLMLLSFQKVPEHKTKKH
The experiment in a line: Time course of anticoagulant effect (Helena Thromboplastic Reagent MI clotting test). It is filed as in vivo. Conditions: mice, 1.5 mg/kg by gavage in 0.5% methylcellulose. How it is done: Five mice per arm (fifteen animals total) were used for the test. […] The dose was 1.5 mg/kg, administered in 0.5% methylcellulose by gavage. The Helena Thromboplastic Reagent MI test (Helena Laboratories, Beaumont, Tex.) was employed to determine the duration of clotting.

A word on the half-life: it is the time needed for the level to fall by half in the phase considered.

T1 sequence (P08684 2-503 limits assumed): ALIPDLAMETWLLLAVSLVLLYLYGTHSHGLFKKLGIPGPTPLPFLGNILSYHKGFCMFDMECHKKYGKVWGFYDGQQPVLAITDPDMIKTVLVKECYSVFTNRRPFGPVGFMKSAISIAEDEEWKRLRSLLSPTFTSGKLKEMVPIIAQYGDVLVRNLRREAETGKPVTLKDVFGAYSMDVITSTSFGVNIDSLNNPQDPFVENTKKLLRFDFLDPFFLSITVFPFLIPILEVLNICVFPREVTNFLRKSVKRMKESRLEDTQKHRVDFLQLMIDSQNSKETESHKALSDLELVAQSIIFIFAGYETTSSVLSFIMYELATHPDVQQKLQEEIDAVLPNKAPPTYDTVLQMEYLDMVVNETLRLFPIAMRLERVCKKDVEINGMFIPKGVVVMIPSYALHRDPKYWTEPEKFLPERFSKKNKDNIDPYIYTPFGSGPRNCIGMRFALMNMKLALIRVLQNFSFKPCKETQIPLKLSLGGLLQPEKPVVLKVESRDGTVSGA

On to `C=CC[C@@H]1/C=C(\C)C[C@H](C)C[C@H](OC)[C@H]2O[C@@](O)(C(=O)C(=O)N3CCCC[C@H]3C(=O)O[C@H](/C(C)=C/[C@@H]3CC[C@@H](O)[C@H](OC)C3)[C@H](C)[C@@H](O)CC1=O)[C@H](C)C[C@@H]2OC` [FK506], for which the half-life in series [1] is 21 h. The “distribution in the blood” value in series [2] is listed as 72-98%. `COc1cc(/C=C/C(=O)CC(=O)/C=C/c2ccc(O)c(OC)c2)ccc1O` [curcumin]: the “protection from degradation by CYP3a4” value on CYP3a4 (in the presence of human FKBP (recombinant bacterially-expressed protein)) is recorded as “unable to protect”. Besides, the “substrate for the enzyme CYP3a4” value on CYP3a4 (no FKBP added) is reported as “good substrates”. For the compound `CC(=O)CC(c1ccccc1)c1c(O)c2ccccc2oc1=O` (centres unmarked) [warfarin], the “time after which clotting time doubles” value in series [3] amounted to 18 h.
